Measurements as given in ChEMBL document CHEMBL4145520, “Small-molecule Mcl-1 inhibitors: Emerging anti-tumor agents” (Eur J Med Chem, 2018).
Blank lines part the entries; values can stand above or below the compound they belong to.

What was measured:
[1] = Induction of apoptosis in human MOLP8 cells assessed as caspase 3/7 activation after 2 hrs by caspase-Glo 3/7 assay; assay type: functional, cell-based; conditions: MOLP-8, 2 h
[2] = biological target: T1, Induced myeloid leukemia cell differentiation protein Mcl-1 (Homo sapiens, UniProt Q07820); assay: Inhibition of N-terminal 26 residues truncated 5-FAM labelled Bid-BH3 binding to MCL1 (unknown origin) by fluorescence polarization assay
T1 sequence (Q07820 whole entry, the tested form may be a part): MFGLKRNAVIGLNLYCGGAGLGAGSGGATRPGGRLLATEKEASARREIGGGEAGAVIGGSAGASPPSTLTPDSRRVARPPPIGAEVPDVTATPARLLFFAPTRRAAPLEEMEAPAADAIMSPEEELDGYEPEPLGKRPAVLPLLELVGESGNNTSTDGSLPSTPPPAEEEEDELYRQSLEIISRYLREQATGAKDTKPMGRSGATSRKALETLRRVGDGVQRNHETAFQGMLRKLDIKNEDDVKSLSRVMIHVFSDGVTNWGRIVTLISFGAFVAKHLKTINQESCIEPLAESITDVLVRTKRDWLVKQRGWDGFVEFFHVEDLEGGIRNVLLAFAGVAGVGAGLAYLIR

RS4-11 [3] = assay: Cytotoxicity against human RS4:11 cells assessed as reduction in cell viability after 72 hrs; assay type: functional, cell-based; conditions: RS4-11, 72 h
HeLa = assay: Cytotoxicity against human HeLa cells assessed as reduction in cell viability after 72 hrs; assay type: functional, cell-based
Bcl-2-like protein 1 [4] = biological target: T2, Bcl-2-like protein 1 (Homo sapiens, UniProt Q07817); assay: Inhibition of biotin labelled Bid-BH3 binding to C-terminal GST-tagged human BCL-XL […] expressed in Escherichia coli BL21 (DE3) preincubated for 1 hr followed by followed by biotin labelled Bid-BH3 addition measured after 2 hrs by ELISA
T2 sequence (Q07817 whole entry): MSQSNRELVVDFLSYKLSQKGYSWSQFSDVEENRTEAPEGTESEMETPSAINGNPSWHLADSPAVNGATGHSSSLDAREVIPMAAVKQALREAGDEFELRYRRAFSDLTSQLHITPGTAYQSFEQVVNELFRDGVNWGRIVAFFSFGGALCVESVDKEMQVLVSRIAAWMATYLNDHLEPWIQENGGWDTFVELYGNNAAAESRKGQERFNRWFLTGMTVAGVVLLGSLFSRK

MDA-MB-468 = assay: Cytotoxicity against human MDA-MB-468 cells assessed as reduction in cell viability by MTT assay; assay type: functional, cell-based
Bcl-2-like protein 1 [5] = biological target: T2, Bcl-2-like protein 1; assay: Inhibition of biotin labelled Bid-BH3 binding to GST-tagged BCL-XL (unknown origin) preincubated for 15 mins followed by biotin labelled Bid-BH3 addition measured after 2 hrs by ELISA
A-375 = assay: Growth inhibition of human A375 cells after 48 hrs by CellTiter-Blue assay; assay type: functional; conditions: A-375, 48 h
[6] = biological target: T1, Induced myeloid leukemia cell differentiation protein Mcl-1; assay: Inhibition of FITC-BAK binding to His6 tagged MBP fused recombinant human MCL1 (172 to 327 residues) expressed in Escherichia coli by fluorescence polarization competition assay
RS4-11 [7] = assay: Cytotoxicity against human RS4:11 cells assessed as reduction in cell viability; assay type: functional, cell-based
[8] = biological target: T1, Induced myeloid leukemia cell differentiation protein Mcl-1; assay: Inhibition of Mcl-1 (unknown origin) by TR-FRET assay
[9] = biological target: T1, Induced myeloid leukemia cell differentiation protein Mcl-1; assay: Binding affinity to MCL1 (unknown origin) by surface plasma resonance method
[10] = Inhibition of recombinant FITC tagged Bid-BH3 binding to BCL-XL deltaC (unknown origin) expressed in Escherichia coli BL21 (DE3) by fluorescence polarization assay; set-up: species or system Homo sapiens
B-ALL = assay: Cytotoxicity against human B-ALL cells assessed as reduction in cell viability after 24 hrs by CellTiter-Glo luminescent assay; assay type: functional, cell-based
[11] = biological target: T1, Induced myeloid leukemia cell differentiation protein Mcl-1; assay: Inhibition of FAM labelled Bid-BH3 binding to N-terminal GST-tagged human recombinant MCL1 expressed in Escherichia coli […] after 60 mins by TR-FRET assay
[12] = biological target: T1, Induced myeloid leukemia cell differentiation protein Mcl-1; assay: Inhibition of FITC-BAK binding to MCL1 (172 to 327 residues) (unknown origin) by fluorescence polarization assay
[13] = biological target: T1, Induced myeloid leukemia cell differentiation protein Mcl-1; assay: Inhibition of His6 tagged MBP fused Mcl-1 (unknown origin) after 0.5 hrs by fluorescence polarization assay
Homo sapiens = species on record: Homo sapiens; assay: Selectivity ratio of Ki for Bcl-2 (unknown origin) to Ki for MCL1 (unknown origin)
[14] = Selectivity ratio of IC50 for human HL60 cells to IC50 for human NCI-H345 cells; assay type: functional
NCI-H345 = assay: Induction of apoptosis in human NCI-H345 cells after 48 hrs by Annexin V-FITC staining based flow cytometry; assay type: functional, cell-based; conditions: NCI-H345, 48 h
[15] = biological target: Apoptosis regulator Bcl-2 (Homo sapiens, UniProt P10415); assay: Displacement of FAM labelled Bid-derived peptide from Bcl-2 (unknown origin) incubated for 1 min by fluorescence polarization assay
Apoptosis regulator Bcl-2, sequence (P10415 whole entry): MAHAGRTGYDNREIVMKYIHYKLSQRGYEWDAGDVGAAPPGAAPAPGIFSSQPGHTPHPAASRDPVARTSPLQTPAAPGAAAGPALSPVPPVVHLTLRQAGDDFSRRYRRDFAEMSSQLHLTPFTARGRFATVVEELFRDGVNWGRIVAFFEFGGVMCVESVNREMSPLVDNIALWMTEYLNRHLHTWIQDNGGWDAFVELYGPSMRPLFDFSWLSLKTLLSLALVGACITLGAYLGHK

[16] = biological target: T1, Induced myeloid leukemia cell differentiation protein Mcl-1; assay: Displacement of FAM labelled Bid-derived peptide from MCL1 (unknown origin) incubated for 1 min by fluorescence polarization assay
HL-60 = assay: Induction of apoptosis in human HL60 cells after 48 hrs by Annexin V-FITC staining based flow cytometry; assay type: functional, cell-based; conditions: HL-60, 48 h
NCI-H23 = assay: Antiproliferative activity against human NCI-H23 cells after 48 hrs by CellTiter-Glo assay; assay type: functional, cell-based; conditions: NCI-H23, 48 h
[17] = Antiproliferative activity against human NCI-H2110 cells after 48 hrs by CellTiter-Glo assay; assay type: functional, cell-based; conditions: NCI-H2110, 48 h

EC50 [1]: > 11 µM
Structure (SMILES): Cc1c(-c2cccc3c(CCCOc4cccc5ccccc45)c(C(=O)O)[nH]c23)c(COc2ccccc2)nn1C

EC50 [1]: > 11 µM
Structure (SMILES): Cc1c(-c2cccc3c(CCCOc4cccc5ccccc45)c(C(=O)O)[nH]c23)c(COc2cccc(C=O)c2)nn1C

IC50 [10]: > 50 µM
Structure (SMILES): Cc1cs/c(=N\C2CCCCC2)n1/N=C/c1ccc(O)c(O)c1O
IC50 (B-ALL): 4.2 µM

EC50 [1]: 2.7 µM
Structure (SMILES): CC(=O)c1cccc(OCc2nn(C)c(C)c2-c2cccc3c(CCCOc4cccc5ccccc45)c(C(=O)O)[nH]c23)c1

EC50 [1]: > 11 µM
IC50 [11]: 0.162 µM
Structure (SMILES): Cc1c(-c2cccc3c(CCCOc4cccc5ccccc45)c(C(=O)O)[nH]c23)c(COc2ccc(B(O)O)cc2)nn1C

EC50 (NCI-H23): 7.2 µM
Structure (SMILES): O=C(O)c1[nH]c2ccccc2c1CCCCC1CCCCC1
EC50 [17]: 5.3 µM

The next lines start with the compound.

Structure (SMILES): Cc1c(-c2cccc3c(CCCOc4cccc5ccccc45)c(C(=O)O)[nH]c23)c(COc2ccc(B(O)O)c(C=O)c2)nn1C
EC50 [1]: 0.46 µM

Structure (SMILES): COc1cc(NC(=O)CCC(=O)N2CCN(Cc3cccc(-c4ccc(Cl)cc4)c3)CC2)cc(OC)c1OC
Ki [2]: 0.32 µM

Structure (SMILES): COc1cc(CC(=O)NCc2ccc(C(=O)N3CCN(Cc4ccccc4-c4ccccc4)CC3)cc2)cc(OC)c1OC
Ki [2]: 0.18 µM

Structure (SMILES): O=C(c1ccccc1O)c1[nH]c(Cl)c(Cl)c1-n1c(C(=O)c2ccccc2O)cc(Cl)c1Cl
IC50 (RS4-11 [3]): 2 µM
IC50 (HeLa): 20 µM
IC50 (Bcl-2-like protein 1 [4]): > 80 µM

Structure (SMILES): O=C(O)CSc1ccc(C(=O)c2[nH]c(Cl)c(Cl)c2-n2c(C(=O)c3ccc(SCC(=O)O)cc3O)cc(Cl)c2Cl)c(O)c1
IC50 (MDA-MB-468): 29 µM
IC50 (Bcl-2-like protein 1 [5]): > 100 µM

Structure (SMILES): CC(=O)c1cc(OCc2nn(C)c(C)c2-c2cccc3c(CCCOc4cccc5ccccc45)c(C(=O)O)[nH]c23)ccc1B(O)O
EC50 [1]: 0.17 µM

Structure (SMILES): Cc1cc(Oc2ccc(S(=O)(=O)N3CC(C(=O)O)Cc4ccccc43)cc2)cc(C)c1Cl (stereo not drawn)
GI50 (A-375): 50 µM
Ki [6]: 0.12 µM

Structure (SMILES): CC1(C)CCC(CN2CCN(c3ccc(C(=O)NS(=O)(=O)c4ccc(NCC5CCOCC5)c([N+](=O)[O-])c4)c(Oc4cnc5[nH]ccc5c4)c3)CC2)=C(c2ccc(Cl)cc2)C1 [VENETOCLAX]
IC50 (RS4-11 [7]): 0.0015 to 0.005 µM
Ki [8]: > 0.444 µM

Structure (SMILES): N#CC1=C(NCCC(=O)O)c2ccc(Sc3ccc(Br)cc3)c3cccc(c23)C1=O
Kd [9]: 0.15 µM

Structure (SMILES): CCc1nn(C)c(CC)c1-c1cccc2c(CCCOc3cccc4ccccc34)c(C(=O)O)n(CCN3CCOCC3)c12
EC50 [1]: 0.35 µM

Structure (SMILES): Cc1cc(Oc2ccc(C(=O)O)c(OCc3ccccc3)n2)cc(C)c1Cl
Ki [12]: 2.9 µM

Structure (SMILES): Cc1cc(OCCCc2c3n(c4c(-c5c(C)nn(C)c5C)c(Cl)ccc24)CCCC(c2cc(C(=O)O)c4ccn(C)c4c2)C3=O)cc(C)c1Cl (stereo not drawn)
Ki [13]: < 0.001 µM

Structure (SMILES): Cc1c(-c2cccc3c(CCCOc4cccc5ccccc45)c(C(=O)O)n(C)c23)c(COc2ccc(B(O)O)c(C=O)c2)nn1C
EC50 [1]: 0.075 µM

Structure (SMILES): O=C(O)c1cc2ccccc2n1S(=O)(=O)c1ccc(OCc2cccc(Cl)c2)cc1
Ratio Ki (Homo sapiens): 7.5
Ratio IC50 [14]: 30
IC50 (NCI-H345): 2.2 µM
Ki [15]: 3.6 µM
Ki [16]: 0.48 µM
IC50 (HL-60): 63.3 µM
